Measurements taken from patent US20210290784A1, “POSITRON EMISSION TOMOGRAPHY (PET) RADIOTRACERS FOR IMAGING MACROPHAGE COLONY-STIMULATING FACTOR 1 RECEPTOR (CSF1R) IN NEUROINFLAMMATION” (The Johns Hopkins University, priority 2018, published 2021).
Entries after “also recorded” stand apart in the source; their conditions may differ.

Legend:
[1] = target: T1, CSF1R (Mus musculus, UniProt P09581); assay: Blocking study with unlabeled CPPC in control mice; assay type: in vivo; design: from tissue; host or cells: brain of living CD-1, C57BL/6J, transgenic APP (AD model), EAE and CSF1R KO mice
T1 sequence (P09581 20-977): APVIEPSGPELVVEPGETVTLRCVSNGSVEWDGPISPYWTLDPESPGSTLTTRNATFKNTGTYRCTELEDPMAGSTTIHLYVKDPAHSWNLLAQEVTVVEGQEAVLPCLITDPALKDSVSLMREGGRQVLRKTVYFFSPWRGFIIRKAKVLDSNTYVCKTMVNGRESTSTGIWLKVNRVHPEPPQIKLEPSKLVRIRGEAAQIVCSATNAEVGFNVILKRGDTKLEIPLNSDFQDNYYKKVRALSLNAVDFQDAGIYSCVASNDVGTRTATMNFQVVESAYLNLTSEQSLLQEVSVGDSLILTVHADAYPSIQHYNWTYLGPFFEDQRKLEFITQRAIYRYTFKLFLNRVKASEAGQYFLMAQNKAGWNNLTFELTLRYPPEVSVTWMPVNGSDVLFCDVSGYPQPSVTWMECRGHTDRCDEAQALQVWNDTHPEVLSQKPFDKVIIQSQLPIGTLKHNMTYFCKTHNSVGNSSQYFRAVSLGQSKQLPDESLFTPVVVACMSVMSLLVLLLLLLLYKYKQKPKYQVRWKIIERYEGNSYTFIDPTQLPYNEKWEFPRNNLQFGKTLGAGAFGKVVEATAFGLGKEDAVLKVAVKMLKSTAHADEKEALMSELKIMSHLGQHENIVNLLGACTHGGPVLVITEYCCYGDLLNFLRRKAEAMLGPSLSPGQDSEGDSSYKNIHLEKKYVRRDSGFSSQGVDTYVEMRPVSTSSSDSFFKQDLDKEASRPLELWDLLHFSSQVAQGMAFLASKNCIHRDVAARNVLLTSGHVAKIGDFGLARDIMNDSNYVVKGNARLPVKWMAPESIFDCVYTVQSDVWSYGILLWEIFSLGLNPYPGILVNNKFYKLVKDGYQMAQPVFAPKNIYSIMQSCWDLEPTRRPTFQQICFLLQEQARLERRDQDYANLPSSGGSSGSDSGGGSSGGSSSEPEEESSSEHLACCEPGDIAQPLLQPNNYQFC
Description: Mice (male CD1 or C57BL/6J) were killed by cervical dislocation at 45 min following i.v. injection of [^11C]CPPC. The blockers, CPPC (0.3, 0.6, 1.2, 3.0, 10, and 20 mg/kg), or CSF1R inhibitor, compound 8 (Illig C R, et al. (2008)) (2 mg/kg), were given i.p., 5 min before [^11C]CPPC, whereas baseline animals received vehicle. […] Regional brain uptake of [^11C]CPPC at baseline was compared with that with blocking.
Animals were sacrificed by cervical dislocation at 45 min following injection of 5.1 MBq (0.14 mCi) [^11C]CPPC [specific radioactivity=511 GBq/μmol (13.8 Ci/μmol)] in 0.2 mL saline into a lateral tail vein. […] The percentage of standardized uptake value (% SUV) was calculated.
Animals were sacrificed by cervical dislocation at 45 min following injection of 5.0 MBq (0.135 mCi) [^11C]CPPC [specific radioactivity=390 GBq/μmol (10.5 Ci/μmol)] in 0.2 mL saline into a lateral tail vein. […] The outcome variables for the cortex are presented without blood correction as % SUV (FIG. 11A) and with blood correction as SUVR (FIG. 11B).

[2] = Mouse plasma and brain radiometabolite analysis; assay type: in vivo, mice
Description: The animals were injected IV with 37 MBq (1 mCi) [^11C]CPPC [specific radioactivity=673 GBq/μmol (18.2 Ci/μmol)] and sacrificed by cervical dislocation at 10 min (3 animals) and 30 min (3 animals) after the radiotracer injection. […] Radiometabolites of [^11C]CPPC in the mouse plasma and brain were analyzed using a general HPLC method described above for baboon. Before the HPLC analysis the mouse brain was homogenized in 2 mL of mixture 50% acetonitrile: 50% phosphate buffer (Et3N, H3PO4, pH 7.2). The homogenates were centrifuged (14000 g for 5 min) and supernatants filtered using 0.2 micron filter and filtrate was analyzed by radio-HPLC with phenomenex Gemini C18, 10μ, 4.6×250 mm and 2 mL/min isocratic elution and 50% acetonitrile-50% aqueous triethylamine, c=0.06 M and pH=7.2 as mobile phase. […] The radiometabolites poorly penetrate the blood-brain barrier and their presence in the brain is low (Table 4)

[3] = target: T1, CSF1R; assay: Brain uptake in transgenic mouse model of AD; assay type: in vivo, mice; design: from tissue; host or cells: brain of living CD-1, C57BL/6J, transgenic APP (AD model), EAE and CSF1R KO mice; details: all brain regions, 45 min
Description: Mouse model of Alzheimer's disease-related amyloidosis overexpressed Amyloid Precursor Protein (APP) with Swedish and Indiana mutations was used. The transgenic APP had tetracycline transactivator (tTa)-sensitive promoter that was activated by over-expressing tTa driven by CaMKII promoter (5). Due to such combination of transgenes, the overexpression of transgenic APP was observed only in principal neurons of the forebrain. […] The Alzheimer's male mice (AD) and their sex-matched control littermates were 16 months of age at the time of the study. […] The outcome variables were calculated as % SUV.

[4] = target: CSF1R (Homo sapiens, UniProt P07333); assay: Postmortem human brain autoradiography; assay type: binding; design: from tissue; details: for Autoradiography binding, Baseline: inferior parietal cortex slices
Sequence of CSF1R (Homo sapiens, UniProt P07333) (P07333 20-972): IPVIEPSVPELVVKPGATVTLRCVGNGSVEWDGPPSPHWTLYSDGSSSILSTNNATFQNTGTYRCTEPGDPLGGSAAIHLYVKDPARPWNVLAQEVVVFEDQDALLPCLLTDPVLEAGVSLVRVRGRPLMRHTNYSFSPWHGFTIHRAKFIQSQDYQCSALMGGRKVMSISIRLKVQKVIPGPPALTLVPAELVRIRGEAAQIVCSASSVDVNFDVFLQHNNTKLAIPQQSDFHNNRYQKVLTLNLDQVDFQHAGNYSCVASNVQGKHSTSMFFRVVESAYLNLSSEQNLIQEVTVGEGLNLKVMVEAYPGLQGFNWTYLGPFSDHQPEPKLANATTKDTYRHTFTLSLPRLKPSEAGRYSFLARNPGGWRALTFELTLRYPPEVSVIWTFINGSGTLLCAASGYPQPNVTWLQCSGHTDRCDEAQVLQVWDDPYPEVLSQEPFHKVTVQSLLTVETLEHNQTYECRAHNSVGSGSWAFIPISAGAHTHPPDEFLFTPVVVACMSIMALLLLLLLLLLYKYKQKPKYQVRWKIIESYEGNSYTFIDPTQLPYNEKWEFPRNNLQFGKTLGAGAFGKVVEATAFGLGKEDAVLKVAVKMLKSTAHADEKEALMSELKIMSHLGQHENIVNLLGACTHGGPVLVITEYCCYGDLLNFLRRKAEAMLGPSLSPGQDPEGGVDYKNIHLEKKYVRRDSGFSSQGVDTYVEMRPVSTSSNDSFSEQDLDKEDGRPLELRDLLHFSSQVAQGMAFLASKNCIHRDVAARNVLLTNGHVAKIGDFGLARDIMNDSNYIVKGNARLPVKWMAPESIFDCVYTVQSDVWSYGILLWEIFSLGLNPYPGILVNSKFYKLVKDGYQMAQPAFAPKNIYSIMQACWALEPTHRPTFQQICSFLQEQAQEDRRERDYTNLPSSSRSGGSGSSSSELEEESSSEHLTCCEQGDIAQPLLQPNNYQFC
Description: Use of human tissues has been approved by the Institutional Review Board of the Johns Hopkins Medical Institutions. […] The slides were exposed to X-ray film and analyzed with outcome expressed as pmol/mm^3 of wet tissue±SD.

Q: For `[11CH3]N1CCN(c2ccc(NC(=O)c3ccc(C#N)o3)c(N3CCCCC3)c2)CC1` [[^11C]CPPC, 5-cyano-N-(4-(4-[^11C]methylpiperazin-1-yl)-2-(piperidin-1-yl)phenyl)furan-2-carboxamide], which “blood corrected cortex SUVR, blocking vs baseline” value ([1]; CD1 mice, unlabeled CPPC 0.6 and 3 mg/kg, P=0.05, n=3) is on record?
A: significantly lower

Q: And the “cortex % SUV, blocking vs baseline, without blood correction” value ([1]; CD1 mice, unlabeled CPPC 0.6 and 3 mg/kg, P>0.05, n=3)?
A: No significant difference

Q: What about the “reduction of radioactivity (SUVR, blood-corrected) with blocking” value ([1]; control CD1 mice, cortex, unlabeled CPPC 0.6 and 3 mg/kg IP, 45 min) of the same compound?
A: 20%

Q: What about the “% SUV brain uptake with blocking, low doses of unlabeled CPPC” value ([1]; control CD1 mice, dose escalation, 0.6-3 mg/kg, 45 min, no blood correction) of the same compound?
A: no reduction; also recorded: failed to show a significant reduction; also recorded: insignificant blockade

Q: And the “% SUV brain uptake with blocking, high doses of unlabeled CPPC” value ([1]; control CD1 mice, dose escalation, 10-20 mg/kg, 45 min, no blood correction)?
A: gradual trend toward increased uptake; also recorded: insignificant gradual increase of uptake

Q: And the “Brain Parent [^11C]CPPC, %” value ([2]; 10 min)?
A: 96.6 ± 0.1%

Q: And the “Plasma Parent [^11C]CPPC, %” value ([2]; 10 min)?
A: 70.2 ± 2.2%

Q: And the “Brain Parent [^11C]CPPC, %” value ([2]; 30 min)?
A: 95.1 ± 1.6%

Q: What about the “Plasma Parent [^11C]CPPC, %” value ([2]; 30 min) of the same compound?
A: 39.7 ± 1.3%

Q: What about the “uptake in brain regions of AD mice vs control” value [3] of the same compound?
A: significantly greater; also recorded: significantly higher

Q: What about the “increase of radiotracer binding in AD brain vs. control brain slices” value ([4]; baseline autoradiography) of the same compound?
A: 75-99%

Q: And the “Autoradiography binding, Blocking with unlabeled CPPC” value (“Autoradiography binding, Blocking” for short) ([4]; sample 1-AD)?
A: 4.72 ± 1.07 pmol/mm3

Q: What about the “Autoradiography binding, Baseline” value ([4]; sample 1-AD) of the same compound?
A: 8.18 ± 0.68 pmol/mm3

Q: What about the “Autoradiography binding, Blocking” value ([4]; sample 2-AD) of the same compound?
A: 2.67 ± 0.53 pmol/mm3

Q: And the “Autoradiography binding, Baseline” value ([4]; sample 2-AD)?
A: 7.20 ± 1.55 pmol/mm3

Q: And the “Autoradiography binding, Blocking” value ([4]; sample 3-AD)?
A: 3.73 ± 1.07 pmol/mm3

Q: What about the “Autoradiography binding, Baseline” value ([4]; sample 3-AD) of the same compound?
A: 7.43 ± 1.59 pmol/mm3

Q: And the “Autoradiography binding, Blocking” value ([4]; sample 4-control)?
A: 2.86 ± 1.06 pmol/mm3

Q: What about the “Autoradiography binding, Baseline” value ([4]; sample 4-control) of the same compound?
A: 4.11 ± 1.14 pmol/mm3
